Data on 22 molecules can be found in US9717247B2, “Synergistic fungicidal active combinations” (BAYER CROPSCIENCE AG, priority 2003, dated 2017).

For one test, the system named is Pyrenophora teres. Kind of test: Pyrenophora teres test (barley)/curative. As to conditions: in Hordeum vulgare, 288 h, read-out: Efficacy in % found.
Test [1] concerns Erysiphe graminis f.sp. hordei. The test is described as follows: Erysiphe test (barley)/protective. Type of test: in vivo. The note with it: application rate 12.5 g/ha, protective, evaluation 6 days after inoculation.
A further test has as its system Sphaerotheca fuliginea. Kind of test: Sphaerotheca fuliginea test (cucumber)/protective. As to conditions: protective, 7 days after inoculation; for pest or weed control at 1 g/ha: application rate 1 g/ha. Type of test: in vivo.
The subject of the next test is Alternaria solani. The test is described as follows: Alternaria solani test (tomato)/protective. Type of test: in vivo. The note with it: protective, 3 days after inoculation.
The mark [2] stands for this setting: Podosphaera fuliginea, 168 h, read-out: Efficacy in % found.
Where [3] appears, read: Podosphaera fuliginea, 168 h, application rate 10 g/ha, read-out: Efficacy in % found.

Protocol for Pyrenophora teres: Pyrenophora teres Test (Barley)/Curative • Solvent: 50 parts by weight of N,N-dimethylacetamide • Emulsifier: 1 part by weight of alkylaryl polyglycol ether
To test for curative activity, young plants are sprayed with a conidia suspension of Pyrenophora teres. The plants remain in an incubation cabinet at 20° C. and 100% relative atmospheric humidity for 48 hours.
The plants are placed in a greenhouse at a temperature of about 20° C. and a relative atmospheric humidity of about 80%.
Evaluation is carried out 12 days after the inoculation.

For `N#Cc1ccccc1NC(=O)c1snc(Cl)c1Cl` [3,4-dichloro-N-(2-cyanophenyl)isothiazole-5-carboxamide], in the test on Pyrenophora teres, the pest or weed control at 125 g/ha stood at 43%.
As for `CC(C)CC(C)c1ccccc1NC(=O)c1ccccc1C(F)(F)F` (stereo not shown) [(1-15), N-[2-(1,3-dimethylbutyl)phenyl]-2-(trifluoromethyl)benzamide], the pest or weed control at 25 g/ha with Pyrenophora teres was determined as 14%. The “Efficacy in % found” value in test [1] was 0%.
In the case of `CO/C=C(/C(=O)OC)c1ccccc1Oc1cc(Oc2ccccc2C#N)ncn1` [(2-1) azoxystrobin, azoxystrobin], in the test with Sphaerotheca fuliginea (Podosphaera fuliginea, 168 h, application rate 4 g/ha, read-out: Efficacy in % found), the pest or weed control at 4 g/ha was found to be 50%.
`CNC(=O)/C(=N/OC)c1ccccc1Oc1ncnc(Oc2cccc(Cl)c2C)c1F` [(2-3), (2E)-2-(2-{[6-(3-chloro-2-methylphenoxy)-5-fluoro-4-pyrimidinyl]oxy}phenyl)-2-(methoxyimino)-N-methylethanamide]: the entries for the “Efficacy in % found” value in the test on Alternaria solani (application rate 1 g/ha) and in the test with Alternaria solani (application rate 2 g/ha) were 39% and 32%, respectively.
With `CO/N=C(/C(=O)OC)c1ccccc1CO/N=C(\C)c1cccc(C(F)(F)F)c1` [(2-4) trifloxystrobin, trifloxystrobin], the “Efficacy in % found” value in test [1] worked out at 78%. Moreover, the pest or weed control at 1 g/ha in the test on Sphaerotheca fuliginea (setting [2]) is 20%.
In the case of `CO/C=C(/C(=O)OC)c1ccccc1COc1cccc(C(F)(F)F)n1` [(2-11) picoxystrobin, picoxystrobin], the pest or weed control at 125 g/ha with Pyrenophora teres came out at 86%.
Turning to `COC(=O)N(OC)c1ccccc1COc1ccn(-c2ccc(Cl)cc2)n1` [(2-12) pyraclostrobin, pyraclostrobin], the “Efficacy in % found” value in the test with Alternaria solani (application rate 2 g/ha) came out at 37%.
In the case of `CCCC1COC(Cn2cncn2)(c2ccc(Cl)cc2Cl)O1` (stereo not shown) [(3-3) propiconazole, propiconazole], the pest or weed control at 1 g/ha in the test on Sphaerotheca fuliginea (setting [2]) stood at 37%.
Consider `Fc1ccc(C2(Cn3cncn3)OC2c2ccccc2Cl)cc1` (stereo not shown) [(3-12) epoxyconazole, epoxiconazole], for which, in the test on Pyrenophora teres, the pest or weed control at 125 g/ha stood at 57%.
As to `CC(C)(C)C(O)C(Oc1ccc(-c2ccccc2)cc1)n1cncn1` (stereo not shown) [(3-21) bitertanol, bitertanol], in the test on Sphaerotheca fuliginea (Podosphaera fuliginea, 168 h, application rate 2 g/ha, read-out: Efficacy in % found), the pest or weed control at 2 g/ha came out at 20%.
With `Cc1ccc(N(SC(F)(Cl)Cl)S(=O)(=O)N(C)C)cc1` [(4-2) tolylfluanid, tolylfluanid], in the test on Sphaerotheca fuliginea (setting [3]), the pest or weed control at 10 g/ha worked out at 0%.
Turning to `O=C(Nc1ccccc1-c1ccc(Cl)cc1)c1cccnc1Cl` [(6-2) boscalid, boscalid], the pest or weed control at 1 g/ha in the test on Sphaerotheca fuliginea (setting [2]) came to 10%.
For `CC1(C(=O)Nc2ccc(O)c(Cl)c2Cl)CCCCC1` [(6-6) fenhexamid, fenhexamid], the pest or weed control at 10 g/ha in the test with Sphaerotheca fuliginea (setting [3]) is 0%.
For `CCC1(C(=O)NC(C)c2ccc(Cl)cc2)C(C)C1(Cl)Cl` (stereo not shown) [(6-7) carpropamid, carpropamid], the pest or weed control at 125 g/ha in the test with Pyrenophora teres was determined as 14%.
`COCC(=O)N(c1c(C)cccc1C)[C@H](C)C(=O)OC` [(8-4) metalaxyl-M, metalaxyl-M]: the “Efficacy in % found” value with Alternaria solani (application rate 2 g/ha) is listed as 0%.
Take `COC(=O)[C@@H](C)N(C(=O)Cc1ccccc1)c1c(C)cccc1C` [(8-5) benalaxyl-M, benalaxyl-M]: the “Efficacy in % found” value in the test with Alternaria solani (application rate 2 g/ha) is recorded as 0%.
Consider `Cc1cc(C)nc(Nc2ccccc2)n1` [(9-3) pyrimethanil, pyrimethanil], for which the pest or weed control at 10 g/ha in the test on Sphaerotheca fuliginea (setting [3]) was determined as 0%.
Turning to `N#Cc1c(Cl)c(Cl)c(Cl)c(C#N)c1Cl` [(19-2) chlorothalonil, chlorothalonil], the pest or weed control at 10 g/ha in the test with Sphaerotheca fuliginea (setting [3]) was 0%.
Regarding `C[C@H](Nc1c(-c2c(F)cc(F)cc2F)c(Cl)nc2ncnn12)C(F)(F)F` [(22-1), 5-chloro-N—[(IS)-2,2,2-trifluoro-1-methylethyl]-6-(2,4,6-trifluorophenyl)[1,2,4]triazolo-[1,5-a]pyrimidine-7-amine], the pest or weed control at 1 g/ha with Sphaerotheca fuliginea (setting [2]) turned out to be 22%.
With `CC(C)[C@@H](C)Nc1c(-c2c(F)cc(F)cc2F)c(Cl)nc2ncnn12` [(22-2), 5-chloro-N—[(IR)-1,2-dimethylpropyl]-6-(2,4,6-trifluorophenyl)[1,2,4]triazolo[1,5-a]-pyrimidine-7-amine], the pest or weed control at 1 g/ha with Sphaerotheca fuliginea (setting [2]) is 22%.
For mancozeb [(7-1) mancozeb], the “Efficacy in % found” value with Sphaerotheca fuliginea (application rate 10 g/ha) amounted to 0%.
In the case of propineb [(7-4) propineb], the “Efficacy in % found” value in the test on Sphaerotheca fuliginea (application rate 5 g/ha) was found to be 0%.
